Tests used:
FAAH [1] = target: T1, FAAH (Mus musculus (Mouse), UniProt O08914); assay: Mouse brain proteomes from inhibitor treated mice (oral gavage, sacrificed 4 h after administration); assay type: in vivo; conditions: 5 mg/kg oral gavage
Description: (§1) Preparation of Mouse Brain Proteomes from Inhibitor Treated Mice.
(§2) Inhibitors were administered to wild-type C57B1/6J by oral gavage in a vehicle of polyethylene glycol. Each animal was sacrificed 4 h following administration and brain proteomes were prepared and analyzed according to previously established methods (See Niphakis, M. J., et al. (2011) ACS Chem. Neurosci. and Long, J. Z., et al. Nat. Chem. Biol. 5:37-44).

MAGL [2] = target: T2, MAGL (Mus musculus (Mouse), UniProt O35678); assay: as above; assay type: in vivo; conditions: 5 mg/kg oral gavage
Description: as §1, §2

FAAH [3] = target: FAAH (Homo sapiens (Human), UniProt O00519); assay: In vitro competitive activity-based protein profiling, human proteomes (prefrontal cortex or PC3 cell membrane fractions); assay type: biochemical; conditions: human proteome; for inhibition at 1 µM: read-out: FAAH % inh. 1 μM (human)
Outline: (§3)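 Activity of MAGL and FAAH was quantified from fluorescent gel band intensities. Beforehand, inhibitors at several concentrations competed against subsequent probe labelling (FP-Rh, JW912 or HT-01) in species-matched proteomes, each step 30 min at 37° C.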

MAGL [4] = target: MAGL (Homo sapiens (Human), UniProt Q99685); assay: as above; assay type: biochemical; conditions: human proteome; for inhibition at 1 µM: read-out: MAGL % inh. 1 μM (human)
Outline: as §3

FAAH [5] = target: T1, FAAH; assay: In vitro competitive activity-based protein profiling, mouse proteomes (brain membrane fraction or cell lysates); assay type: biochemical; conditions: mouse proteome, read-out: FAAH % inh. 1 μM (mouse)
Outline: as §3

MAGL [6] = target: T2, MAGL; assay: as above; assay type: biochemical; conditions: mouse proteome, read-out: MAGL % inh. 1 μM (mouse)
Outline: as §3

Chain of FAAH (Homo sapiens (Human), UniProt O00519) (O00519 whole entry): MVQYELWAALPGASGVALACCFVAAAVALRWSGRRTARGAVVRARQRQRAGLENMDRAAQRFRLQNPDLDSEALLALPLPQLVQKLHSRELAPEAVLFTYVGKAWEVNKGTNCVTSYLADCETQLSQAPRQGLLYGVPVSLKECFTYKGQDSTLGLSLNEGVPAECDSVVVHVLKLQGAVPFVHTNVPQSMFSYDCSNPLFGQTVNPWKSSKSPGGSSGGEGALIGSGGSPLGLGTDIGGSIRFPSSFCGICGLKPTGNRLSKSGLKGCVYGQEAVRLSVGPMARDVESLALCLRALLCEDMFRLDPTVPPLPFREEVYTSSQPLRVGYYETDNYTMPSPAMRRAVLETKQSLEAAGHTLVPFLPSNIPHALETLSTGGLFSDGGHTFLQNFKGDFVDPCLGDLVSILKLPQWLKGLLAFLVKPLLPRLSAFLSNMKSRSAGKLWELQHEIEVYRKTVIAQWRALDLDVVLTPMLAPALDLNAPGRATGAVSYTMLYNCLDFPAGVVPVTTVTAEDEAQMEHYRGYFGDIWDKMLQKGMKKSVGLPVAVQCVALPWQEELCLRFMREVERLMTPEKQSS
T1 sequence (O08914 whole entry): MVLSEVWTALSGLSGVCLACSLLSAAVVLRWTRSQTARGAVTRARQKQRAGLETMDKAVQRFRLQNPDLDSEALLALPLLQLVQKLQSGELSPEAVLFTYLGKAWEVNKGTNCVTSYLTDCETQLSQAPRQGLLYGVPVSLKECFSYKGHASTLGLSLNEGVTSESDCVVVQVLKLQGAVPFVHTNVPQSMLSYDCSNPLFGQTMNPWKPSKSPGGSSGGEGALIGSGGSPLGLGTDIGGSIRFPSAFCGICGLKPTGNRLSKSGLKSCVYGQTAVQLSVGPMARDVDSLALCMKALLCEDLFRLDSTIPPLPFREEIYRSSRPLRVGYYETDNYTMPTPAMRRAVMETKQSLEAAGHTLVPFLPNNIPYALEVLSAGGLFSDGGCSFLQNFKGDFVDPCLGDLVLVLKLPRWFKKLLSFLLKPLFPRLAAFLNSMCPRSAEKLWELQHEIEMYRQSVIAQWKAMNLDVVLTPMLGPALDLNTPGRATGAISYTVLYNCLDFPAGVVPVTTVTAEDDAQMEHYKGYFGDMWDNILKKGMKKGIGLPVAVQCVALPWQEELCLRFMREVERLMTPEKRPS
T2 sequence (O35678 whole entry): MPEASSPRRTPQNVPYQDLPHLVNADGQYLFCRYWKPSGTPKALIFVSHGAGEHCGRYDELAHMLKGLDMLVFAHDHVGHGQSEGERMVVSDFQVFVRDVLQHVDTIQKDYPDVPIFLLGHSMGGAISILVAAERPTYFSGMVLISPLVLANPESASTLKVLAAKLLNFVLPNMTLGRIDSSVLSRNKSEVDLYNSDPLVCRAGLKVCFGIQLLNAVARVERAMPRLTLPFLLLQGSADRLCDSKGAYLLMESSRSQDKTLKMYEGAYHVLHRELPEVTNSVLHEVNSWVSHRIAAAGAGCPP
Chain of MAGL (Homo sapiens (Human), UniProt Q99685) (Q99685 whole entry): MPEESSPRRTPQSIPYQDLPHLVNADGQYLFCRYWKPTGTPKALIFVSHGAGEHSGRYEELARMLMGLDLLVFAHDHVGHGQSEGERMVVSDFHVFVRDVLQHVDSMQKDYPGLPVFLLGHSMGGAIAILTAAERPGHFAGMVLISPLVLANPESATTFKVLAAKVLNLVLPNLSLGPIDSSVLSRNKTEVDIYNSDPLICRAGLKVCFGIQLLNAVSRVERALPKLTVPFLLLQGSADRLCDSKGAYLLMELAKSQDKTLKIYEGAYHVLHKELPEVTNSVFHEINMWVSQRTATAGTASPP

inhibition at 1 µM (FAAH [3])	inhibition at 1 µM (MAGL [4])	inhibition at 1 µM (FAAH [5])	inhibition at 1 µM (MAGL [6])	IC50 (FAAH [3])	IC50 (MAGL [4])	Compound	FAAH % inh. 5 mg/kg (mouse) (FAAH [1])	MAGL % inh. 5 mg/kg (mouse) (MAGL [2])
0 to 25%	> 75%	0 to 25%	> 75%			CS(=O)(=O)Nc1ccn(C(=O)N2CCN(Cc3ccc(Cl)c(N4CCO[C@@H]5CCC[C@@H]54)c3)CC2)n1 [Example 158, N-(1-(4-(4-Chloro-3-((4aS,7aR)-hexahydrocyclopenta[b][1,4]oxazin-4(4aH)-yl)benzyl)piperazine-1-carbonyl)-1H-pyrazol-3-yl)methanesulfonamide]	D (% inhibition is greater than or equal to 0% and less than 25%)	D (% inhibition is greater than or equal to 0% and less than 25%)
0 to 25%	> 75%	0 to 25%	> 75%			CS(=O)(=O)Nc1ccn(C(=O)N2CC[C@H](Oc3ccc(C(F)(F)F)c(N4CCC(F)CC4)c3)[C@H](F)C2)n1 [Example 134, N-(1-((3R,4S)-3-Fluoro-4-(3-(4-fluoropiperidin-1-yl)-4-(trifluoromethyl)phenoxy)piperidine-1-carbonyl)-1H-pyrazol-3-yl)methanesulfonamide]	D (% inhibition is greater than or equal to 0% and less than 25%)	C (% inhibition is greater than or equal to 25% and less than 50%)
0 to 25%	> 75%	0 to 25%	> 75%			C[C@@H]1CCCN1c1cc(CN2CCN(C(=O)n3ccc(NS(C)(=O)=O)n3)CC2)ccc1C(F)(F)F [Example 156, (R)-N-(1-(4-(3-(2-Methylpyrrolidin-1-yl)-4-(trifluoromethyl)benzyl)piperazine-1-carbonyl)-1H-pyrazol-3-yl)methanesulfonamide]	D (% inhibition is greater than or equal to 0% and less than 25%)	A (% inhibition is greater than or equal to 75%)
0 to 25%	> 75%	0 to 25%	> 75%	1 to 10 µM	< 0.1 µM	C[C@@H](c1ccc(Cl)c(N2CCC(F)CC2)c1)N1CCN(C(=O)n2ccc(NS(C)(=O)=O)n2)CC1 [Example 11, (S)—N-(1-(4-(1-(4-chloro-3-(4-fluoropiperidin-1-yl)phenyl)ethyl)piperazine-1-carbonyl)-1H-pyrazol-3-yl)methanesulfonamide]	D (% inhibition is greater than or equal to 0% and less than 25%)	C (% inhibition is greater than or equal to 25% and less than 50%)
50 to 75%	> 75%	> 75%	> 75%	0.1 to 1 µM	< 0.1 µM	CC(=O)Nc1ccn(C(=O)N2CCN(Cc3ccc(N4CC5COCC5C4)cc3C(F)(F)F)CC2)n1 (stereo not shown) [Example 22, N-(1-(4-(4-(tetrahydro-1H-furo[3,4-c]pyrrol-5(3H)-yl)-2-(trifluoromethyl)benzyl)piperazine-1-carbonyl)-1H-pyrazol-3-yl)acetamide]	C (% inhibition is greater than or equal to 25% and less than 50%)	C (% inhibition is greater than or equal to 25% and less than 50%)
25 to 50%	> 75%	0 to 25%	> 75%	1 to 10 µM	< 0.1 µM	CC(=O)Nc1ccn(C(=O)N2CC3CN(Cc4ccc(Cl)c(C(C)(C)O)c4)CC3C2)n1 (stereo not shown) [Example 150, N-(1-(5-(4-Chloro-3-(2-hydroxypropan-2-yl)benzyl)octahydropyrrolo[3,4-c]pyrrole-2-carbonyl)-1H-pyrazol-3-yl)acetamide]	D (% inhibition is greater than or equal to 0% and less than 25%)	D (% inhibition is greater than or equal to 0% and less than 25%)
0 to 25%	> 75%	0 to 25%	> 75%			CC(=O)N(Cc1ccc(C(F)(F)F)cc1N1CCCC1)C1(C)CCN(C(=O)n2ccc(NS(C)(=O)=O)n2)CC1 [Example 103, N-(4-Methyl-1-(3-(methylsulfonamido)-1H-pyrazole-1-carbonyl)piperidin-4-yl)-N-(2-(pyrrolidin-1-yl)-4-(trifluoromethyl)benzyl)acetamide]	D (% inhibition is greater than or equal to 0% and less than 25%)	D (% inhibition is greater than or equal to 0% and less than 25%)
25 to 50%	> 75%	> 75%	> 75%	1 to 10 µM	< 0.1 µM	CC(=O)Nc1ccn(C(=O)N2CCC3(CCN(C(=O)c4cc5ccc(C(F)(F)F)cc5s4)C3)CC2)n1 [Example 154, N-(1-(2-(6-(Trifluoromethyl)benzo[b]thiophene-2-carbonyl)-2,8-diazaspiro[4.5]decane-8-carbonyl)-1H-pyrazol-3-yl)acetamide]	C (% inhibition is greater than or equal to 25% and less than 50%)	B (% inhibition is greater than or equal to 50% and less than 75%)
0 to 25%	> 75%	0 to 25%	> 75%			CN(Cc1ccc(C(F)(F)F)cc1N1CCCC1)C1(C)CCN(C(=O)n2ccc(NS(C)(=O)=O)n2)CC1 [Example 75, N-(1-(4-Methyl-4-(methyl(2-(pyrrolidin-1-yl)-4-(trifluoromethyl)benzyl)amino)piperidine-1-carbonyl)-1H-pyrazol-3-yl)methanesulfonamide]	D (% inhibition is greater than or equal to 0% and less than 25%)	A (% inhibition is greater than or equal to 75%)
0 to 25%	> 75%	0 to 25%	> 75%			CS(=O)(=O)Nc1ccn(C(=O)N2CCC(Oc3ccc(C(F)(F)F)cc3-c3nnco3)CC2)n1 [Example 96, N-(1-(4-(2-(1,3,4-Oxadiazol-2-yl)-4-(trifluoromethyl)phenoxy)piperidine-1-carbonyl)-1H-pyrazol-3-yl)methanesulfonamide]	D (% inhibition is greater than or equal to 0% and less than 25%)	D (% inhibition is greater than or equal to 0% and less than 25%)
0 to 25%	> 75%	0 to 25%	> 75%			CC(=O)Nc1ccn(C(=O)N2CCN(Cc3ccc(C(F)(F)F)cc3NCCCC(=O)O)CC2)n1 [Example 76, 4-((2-((4-(3-Acetamido-1H-pyrazole-1-carbonyl)piperazin-1-yl)methyl)-5-(trifluoromethyl)phenyl)amino)butanoic acid]	D (% inhibition is greater than or equal to 0% and less than 25%)	D (% inhibition is greater than or equal to 0% and less than 25%)
0 to 25%	> 75%	0 to 25%	> 75%	1 to 10 µM	< 0.1 µM	CC(=O)Nc1ccn(C(=O)N2CCC(C)(N(C)Cc3cc(C(F)(F)F)cc(C4(C(=O)O)CCCC4)c3)CC2)n1 [Example 132, 1-(3-(((1-(3-Acetamido-1H-pyrazole-1-carbonyl)-4-methylpiperidin-4-yl)(methyl)amino)methyl)-5-(trifluoromethyl)phenyl)cyclopentane-1-carboxylic acid]	D (% inhibition is greater than or equal to 0% and less than 25%)	D (% inhibition is greater than or equal to 0% and less than 25%)
0 to 25%	> 75%	0 to 25%	> 75%			CS(=O)(=O)Nc1ccn(C(=O)N2CCN(Cc3ccc(Cl)c(N4CCCC45CC5)c3)CC2)n1 [Example 12, N-(1-(4-(4-chloro-3-(4-azaspiro[2.4]heptan-4-yl)benzyl)piperazine-1-carbonyl)-1H-pyrazol-3-yl)methanesulfonamide]	D (% inhibition is greater than or equal to 0% and less than 25%)	D (% inhibition is greater than or equal to 0% and less than 25%)
0 to 25%	> 75%	0 to 25%	> 75%			C[C@@H]1CN(Cc2ccc(Cl)c(N3CC4COCC4C3)c2)CCN1C(=O)n1ccc(NS(C)(=O)=O)n1 (stereo partly drawn) [Example 137, N-(1-((2R)-4-(4-Chloro-3-(tetrahydro-1H-furo[3,4-c]pyrrol-5(3H)-yl)benzyl)-2-methylpiperazine-1-carbonyl)-1H-pyrazol-3-yl)methanesulfonamide]	D (% inhibition is greater than or equal to 0% and less than 25%)	D (% inhibition is greater than or equal to 0% and less than 25%)

From US11149037B2, “Pyrazole MAGL inhibitors” (H. Lundbeck A/S, priority 2017, dated 2021)
